Measurements taken from ChEMBL document CHEMBL5126603, “Discovery of Clinical Candidate CHF-6366: A Novel Super-soft Dual Pharmacology Muscarinic Antagonist and β2 Agonist (MABA) for the Inhaled Treatment of Respiratory Diseases” (J Med Chem, 2022).

What was measured:
[1] = Half life in Dunkin-Hartley guinea pig plasma at 500 nmol/Kg, IT(Intratracheal) measured after 72 hrs by LC/MS-MS analysis; type: ADME, cell-free, Cavia porcellus; details: inhaled or intranasal
[2] = AUCinfinity in Dunkin-Hartley guinea pig plasma at 500 nmol/Kg, IT(Intratracheal) measured after 72 hrs by LC/MS-MS analysis; type: ADME, cell-free, Cavia porcellus; parameters: dose 500 nmol/kg, time 72 hrs, route it(Intratracheal); details: inhaled or intranasal
Trachea [3] = test: (§1) Bifunctional antagonist activity at muscarinic M3 receptor /agonist activity at beta-2 adrenoceptor in Dunkin-Hartley guinea pig trachea assessed as inhibition of acetylcholine-induced bronchoconstriction at 1 nmol/Kg, IT(Intratracheal) measured after 15 mins by Konzett-Roessler methodology relative to control; type: functional; details: Cavia porcellus, 0.25 h
[4] = In vivo agonist activity at beta-2 adrenoceptor in Dunkin-Hartley guinea pig trachea assessed as inhibition of histamine induced bronchoconstriction at 1 nmol/Kg, IT(Intratracheal) measured after 1 hr by Konzett-Roessler methodology relative to control; type: functional; details: Cavia porcellus
Trachea [5] = test: as §1, with “0.1” for “1”, “30” for “15”; type: functional; details: Cavia porcellus, 0.5 h
[6] = Metabolic stability in human liver microsomes assessed as clearance at 1 uM measured per mg protein incubated upto 60 mins in presence of NADPH by LC-MS/MS analysis; type: ADME, Microsome; details: read-out: CLH
Trachea [7] = test: as §1, with “at 0.3” for “at 1”; type: functional; details: Cavia porcellus, 0.25 h
[8] = Mutagenicity in Salmonella typhimurium assessed as induction of reverse mutation by Ames test; type: toxicity; details: salmonella enterica subsp. enterica serovar typhimurium
Trachea [9] = test: In vivo bifunctional antagonist activity at muscarinic M3 receptor /agonist activity at beta-2 adrenoceptor in Dunkin-Hartley guinea pig trachea assessed as inhibition of carbachol induced contraction; type: functional, tissue-based; details: Cavia porcellus
[10] = molecular target: Sodium-dependent serotonin transporter (Homo sapiens) (UniProt P31645); test: Inhibition of serotonin transporter (unknown origin) at 10 uM relative to control
[11] = Tmax in Dunkin-Hartley guinea pig plasma at 500 nmol/Kg, IT(Intratracheal) measured after 72 hrs by LC/MS-MS analysis; type: ADME, cell-free, Cavia porcellus; details: inhaled or intranasal
[12] = molecular target: D(2) dopamine receptor (Homo sapiens) (UniProt P14416); test: Inhibition of dopamine D2 receptor (unknown origin) at 10 uM relative to control
[13] = In vivo agonist activity at beta-2 adrenoceptor in Dunkin-Hartley guinea pig trachea assessed as inhibition of histamine induced bronchoconstriction at 0.3 nmol/Kg, IT(Intratracheal) measured after 1 hr by Konzett-Roessler methodology relative to control; type: functional; details: Cavia porcellus
[14] = Cmax in Dunkin-Hartley guinea pig lung at 500 nmol/Kg, IT(Intratracheal) measured after 72 hrs by LC/MS-MS analysis; type: ADME, tissue-based, Cavia porcellus; parameters: time 72 hrs, dose 500 nmol/kg, route it(Intratracheal); details: inhaled or intranasal
[15] = Metabolic stability in Dunkin-Hartley guinea pig hepatocytes assessed as clearance at 1 uM measured per 10^6 cells and incubated upto 90 mins by LC-MS/MS analysis; type: ADME, cell-based, Cavia porcellus, Hepatocyte; details: read-out: CLH
Trachea [16] = test: as §1, with “0.1” for “1”, “5” for “15”; type: functional; details: Cavia porcellus
[17] = In vivo antagonist activity at muscarinic M3 receptor in Dunkin-Hartley guinea pig trachea assessed as inhibition of acetylcholine induced bronchoconstriction at 0.3 nmol/Kg, IT(Intratracheal) measured after 24 hr in presence of ICI-118551 by Konzett-Roessler methodology relative to control; type: functional; details: Cavia porcellus
[18] = Apparent permeability across basolateral to apical side in human Caco-2 cells at 10 uM and measured after 2 hrs by LC-MS/MS analysis; type: ADME, cell-based
[19] = Metabolic stability in Dunkin-Hartley guinea pig lung S9 fraction assessed as half life at 1 uM measured after 0 to 60 mins in presence of NADPH by LC-MS/MS analysis; type: ADME, subcellular, Cavia porcellus; details: time 0-60 min
[20] = AUCinfinity in Dunkin-Hartley guinea pig lung at 500 nmol/Kg, IT(Intratracheal) measured after 72 hrs by LC/MS-MS analysis; type: ADME, tissue-based, Cavia porcellus; parameters: dose 500 nmol/kg, time 72 hrs, route it(Intratracheal); details: in vivo, inhaled_or_intranasal

Sequence of D(2) dopamine receptor (Homo sapiens) (P14416 whole entry): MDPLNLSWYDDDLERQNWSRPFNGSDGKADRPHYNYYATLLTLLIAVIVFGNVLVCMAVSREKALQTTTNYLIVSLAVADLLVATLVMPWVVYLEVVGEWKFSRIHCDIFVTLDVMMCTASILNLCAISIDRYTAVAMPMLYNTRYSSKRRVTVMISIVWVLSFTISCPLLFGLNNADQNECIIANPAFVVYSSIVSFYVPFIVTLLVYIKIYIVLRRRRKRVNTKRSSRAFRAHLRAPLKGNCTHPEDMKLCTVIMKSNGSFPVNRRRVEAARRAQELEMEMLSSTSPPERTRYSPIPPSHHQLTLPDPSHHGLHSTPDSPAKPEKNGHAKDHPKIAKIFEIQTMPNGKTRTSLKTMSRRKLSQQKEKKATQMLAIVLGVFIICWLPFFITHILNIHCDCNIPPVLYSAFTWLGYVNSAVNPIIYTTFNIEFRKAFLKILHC
Sequence of Sodium-dependent serotonin transporter (Homo sapiens) (P31645 whole entry, looked up): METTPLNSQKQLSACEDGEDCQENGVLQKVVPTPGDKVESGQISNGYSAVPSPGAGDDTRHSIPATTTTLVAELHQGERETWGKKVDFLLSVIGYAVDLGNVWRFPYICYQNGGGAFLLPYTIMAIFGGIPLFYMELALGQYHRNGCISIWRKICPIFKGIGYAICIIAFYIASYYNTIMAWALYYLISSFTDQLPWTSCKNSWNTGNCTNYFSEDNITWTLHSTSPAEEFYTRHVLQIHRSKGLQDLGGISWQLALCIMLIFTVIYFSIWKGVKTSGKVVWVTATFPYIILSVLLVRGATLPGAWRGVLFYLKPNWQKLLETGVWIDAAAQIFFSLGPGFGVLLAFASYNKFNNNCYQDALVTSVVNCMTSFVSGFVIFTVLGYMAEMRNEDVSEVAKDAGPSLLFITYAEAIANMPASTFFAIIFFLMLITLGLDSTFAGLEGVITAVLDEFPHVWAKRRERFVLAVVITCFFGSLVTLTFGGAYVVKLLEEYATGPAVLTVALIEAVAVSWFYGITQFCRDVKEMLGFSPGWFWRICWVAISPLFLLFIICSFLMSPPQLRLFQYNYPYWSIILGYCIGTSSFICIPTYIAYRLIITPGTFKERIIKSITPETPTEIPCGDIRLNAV

With `Cn1nc(C(=O)OCCCCNC[C@H](O)c2ccc(O)c3[nH]c(=O)ccc23)cc1COc1cccc([C@@H](NC(=O)O[C@H]2CN3CCC2CC3)c2ccccc2)c1` as the compound, how does the half-life [1] read?
The half-life was 15.4 h.

And the AUC(0-inf) [2]?
Its AUC(0-inf) is 661 ng·h/mL.

What about the inhibition in vivo at 0.001 µmol/kg (Trachea [3]) of the same compound?
Its inhibition in vivo at 0.001 µmol/kg is 91.3%.

What about the inhibition in vivo at 0.001 µmol/kg [4] of the same compound?
The inhibition in vivo at 0.001 µmol/kg was 69.8%.

And the inhibition in vivo at 0.0001 µmol/kg (Trachea [5])?
Its inhibition in vivo at 0.0001 µmol/kg is 33.1%.

What about the microsomal CLint at 1 µM [6] of the same compound?
Its microsomal CLint at 1 µM is 14 µL/min/mg.

What about the inhibition in vivo at 0.0003 µmol/kg (Trachea [7]) of the same compound?
The inhibition in vivo at 0.0003 µmol/kg was 66.2%.

And the Activity [8]?
The Activity was “Non-Toxic”.

And the IC50 (Trachea [9])?
Its IC50 is 0.316 nM.

What about the inhibition [10] of the same compound?
The inhibition was > 65%.

What about the Tmax [11] of the same compound?
Its Tmax is 4.98 min.

What about the inhibition [12] of the same compound?
Its inhibition is > 65%.

What about the inhibition in vivo at 0.0003 µmol/kg [13] of the same compound?
Its inhibition in vivo at 0.0003 µmol/kg is 31.9%.

What about the Cmax [14] of the same compound?
The Cmax was 28400 ng/g.

What about the hepatocyte CLint at 1 µM [15] of the same compound?
Its hepatocyte CLint at 1 µM is 37 µL/min/1e6 cells.

And the inhibition in vivo at 0.0001 µmol/kg (Trachea [16])?
Its inhibition in vivo at 0.0001 µmol/kg is 9.7%.

And the inhibition in vivo at 0.0003 µmol/kg [17]?
The inhibition in vivo at 0.0003 µmol/kg was 30.1%.

And the Papp B→A at 2 h, 10 µM [18]?
Its Papp B→A at 2 h, 10 µM is 1.5 ×10⁻⁶ cm/s.

And the half-life at 1 µM [19]?
Its half-life at 1 µM is > 2 h.

And the AUC [20]?
Its AUC is 725199 ng·h/g.
